Here are results for one compound from article PMC8211267, “Potent PDE4 inhibitor activates AMPK and Sirt1 to induce mitochondrial biogenesis” (PLoS ONE, 2021).

The experiment deals with PDE4D (Homo sapiens, UniProt Q08499). As to the kind of experiment: recombinant PDE4 activity assay, [3H]cAMP hydrolysis, dose-response. Type of experiment: biochemical.

Molecules are shown by their SMILES.

PDE4D, sequence (Q08499 whole entry): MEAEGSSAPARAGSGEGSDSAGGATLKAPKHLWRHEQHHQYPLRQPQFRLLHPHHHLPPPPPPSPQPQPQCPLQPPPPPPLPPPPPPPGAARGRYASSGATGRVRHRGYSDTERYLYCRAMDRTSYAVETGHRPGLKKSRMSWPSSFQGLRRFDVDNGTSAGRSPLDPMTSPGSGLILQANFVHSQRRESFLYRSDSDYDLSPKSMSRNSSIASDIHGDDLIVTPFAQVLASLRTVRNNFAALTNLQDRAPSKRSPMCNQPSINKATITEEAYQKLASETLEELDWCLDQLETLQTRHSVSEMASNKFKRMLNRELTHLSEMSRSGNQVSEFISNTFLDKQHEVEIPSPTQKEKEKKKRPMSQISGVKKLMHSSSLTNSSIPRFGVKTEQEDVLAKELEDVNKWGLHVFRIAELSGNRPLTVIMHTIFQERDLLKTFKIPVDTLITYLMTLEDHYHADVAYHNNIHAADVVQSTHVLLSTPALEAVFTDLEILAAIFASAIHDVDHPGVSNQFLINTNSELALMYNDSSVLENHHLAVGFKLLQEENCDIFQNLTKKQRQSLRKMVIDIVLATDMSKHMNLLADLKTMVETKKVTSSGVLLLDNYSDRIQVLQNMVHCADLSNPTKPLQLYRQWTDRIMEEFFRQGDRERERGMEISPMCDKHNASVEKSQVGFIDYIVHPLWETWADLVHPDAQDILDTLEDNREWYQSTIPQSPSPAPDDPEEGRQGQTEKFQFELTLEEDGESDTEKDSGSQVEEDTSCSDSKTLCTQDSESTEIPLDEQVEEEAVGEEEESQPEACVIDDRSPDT

As for `COc1ccc(C(=O)Nc2ccccc2C)cc1OC` [CBU91, 3,4-dimethoxy-N-(o-tolyl)benzamide], the IC50 (in general, the concentration that gives 50% inhibition) was ~0.45 µM.
